Data from EP0240717A2, “Prevention of mammary carcinoma” (The Board of Regents of the University of Nebraska, priority 1986, dated 1987).

How the values were obtained:
[1] = tested on: breast carcinoma; conditions: cited from earlier work; for percent of the rats developed cancer in 7 months / percent of the rats developed cancer in one year: rats treated with drug and a carcinogen; for percent of the rats developed cancer in 7 months: incidence at 7 months; for percent of the rats developed cancer in one year: incidence at one year; for lifetime effect in reducing the appearance of breast carcinoma: treated rats compared to other rats receiving carcinogen at the same time
[2] = in animals; cited from earlier work
[3] = tested on: mammary carcinoma; assay: Anti-mammary carcinogenic activity in female rats fed DMBA, hormone given by pellet or minipump; assay type: in vivo, Sprague-Dawley rats; conditions: doses that do not have undesirable side effects
Experimental: In tests for anti-mammary carcinogenic activity following the feeding of carcinogen to mammals, ten different estrogenic compounds were implanted in female rats fed a carcinogen. The incidence of breast cancer for each compound was determined. Rats receiving only the carcinogen were used as controls. Ethynyl estriol was obtained from Eli Lilly, Inc., Greenfield, Indiana; the other estrogens were obtained from Sigma, Inc., St. Louis, Missouri, or Steraloids, Inc., Wilton, New Hampshire.
In all of the tests, intact female Sprague-Dawley rats, obtained from Sasco, Inc., Omaha, Nebraska, at 50 to 55 days of age were used.
They were: (1) randomized upon receipt; (2) housed individually in suspended cages; (3) fed Purina Lab Chow and distilled water; and (4) the temperature was maintained within 22-23 degrees and 40-50 percent relative humidity. […]
Rats free of neoplasms were followed for one year. […] Significant differences in cancer incidence between treated and controlled groups were determined.
The differences in cancer incidence between treated and controlled groups in each experiment were determined by X2 using the Yate's correction. […] The significance of difference in mammary-carcinoma-free survival in rate-days was determined for these groups at 210 days after DMBA administration using the Mann-Whitney U Test. […]

[4] = in vitro by tissues; cited from earlier work
[5] = tested on: breast cancers induced by a carcinogenic chemical; conditions: cited from earlier work

SMILES	percent of the rats developed cancer in 7 months [1]	percent of the rats developed cancer in one year [1]	other results
C[C@]12CC[C@@H]3c4cc(O)c(O)cc4CC[C@H]3[C@@H]1CC[C@@H]2O [2-OH estradiol 17 beta]	78%	94%	
C[C@]12CC[C@@H]3c4ccc(O)cc4C(=O)C[C@H]3[C@@H]1CC[C@@H]2O [6 keto estradiol, 6-keto estradiol 17 beta]	31%	61%	lifetime effect in reducing the appearance of breast carcinoma [1]: 30-50%
C#C[C@]1(O)CC[C@H]2[C@@H]3CCc4cc(O)ccc4[C@H]3[C@@H](OC)C[C@@]21C [11 beta methoxy 17 alpha ethynyl estradiol 17 beta]			carcinogenicity [2]: carcinogenic in animals
C#C[C@]1(O)CC[C@H]2[C@@H]3CCc4cc(O)ccc4[C@H]3CC[C@@]21C [17 alpha ethynyl estradiol 17 beta]	90%	100%	
C#C[C@]1(O)[C@H](O)C[C@H]2[C@@H]3CCc4cc(O)ccc4[C@H]3CC[C@@]21C [17 alpha ethynyl estriol]			risk of mammary carcinoma [3]: reduce the risk of mammary carcinoma
C[C@]12CCc3c(ccc4cc(O)ccc34)[C@@H]1CCC2=O [d-equilenin]			position of oxidation [4]: almost exclusively at the C4 (R1) position
CC/C(=C(/CC)c1ccc(O)cc1)c1ccc(O)cc1 [diethylstilbestrol]	88%	100%	
COc1ccc2c(c1)CC[C@@H]1[C@@H]2CC[C@]2(C)[C@@H](O)[C@H](O)C[C@@H]12 [estriol 3-methyl ether]			lifetime effect in reducing the appearance of breast carcinoma [1]: 30-50%
C[C@]12CC[C@@H]3c4ccc(O)cc4CC[C@H]3[C@@H]1C[C@@H](O)[C@@H]2O [estriol]	26%	63%	inhibiting the development of breast cancers [5]: moderately effective
CC/C(=C(\c1ccccc1)c1ccc(OCCN(C)C)cc1)c1ccccc1 [tamoxifen]	78%	89%	
